Assay results: patent US12358886B2, “Heterocyclic compounds for use in the treatment of cancer” (Artios Pharma Limited, priority 2019, dated 2025)

These compounds were tested against Polθ protein (amino acids 2-2590) (Homo sapiens, UniProt O75417) (assay: Polθ full length enzyme potency assay (PicoGreen)). Conditions: Polθ IC50 (nM), full length N-His, C-term FLAG tagged Polθ, PicoGreen fluorescence, 12 point concentration response.
Sequence of Polθ protein (amino acids 2-2590) (O75417 2-2590): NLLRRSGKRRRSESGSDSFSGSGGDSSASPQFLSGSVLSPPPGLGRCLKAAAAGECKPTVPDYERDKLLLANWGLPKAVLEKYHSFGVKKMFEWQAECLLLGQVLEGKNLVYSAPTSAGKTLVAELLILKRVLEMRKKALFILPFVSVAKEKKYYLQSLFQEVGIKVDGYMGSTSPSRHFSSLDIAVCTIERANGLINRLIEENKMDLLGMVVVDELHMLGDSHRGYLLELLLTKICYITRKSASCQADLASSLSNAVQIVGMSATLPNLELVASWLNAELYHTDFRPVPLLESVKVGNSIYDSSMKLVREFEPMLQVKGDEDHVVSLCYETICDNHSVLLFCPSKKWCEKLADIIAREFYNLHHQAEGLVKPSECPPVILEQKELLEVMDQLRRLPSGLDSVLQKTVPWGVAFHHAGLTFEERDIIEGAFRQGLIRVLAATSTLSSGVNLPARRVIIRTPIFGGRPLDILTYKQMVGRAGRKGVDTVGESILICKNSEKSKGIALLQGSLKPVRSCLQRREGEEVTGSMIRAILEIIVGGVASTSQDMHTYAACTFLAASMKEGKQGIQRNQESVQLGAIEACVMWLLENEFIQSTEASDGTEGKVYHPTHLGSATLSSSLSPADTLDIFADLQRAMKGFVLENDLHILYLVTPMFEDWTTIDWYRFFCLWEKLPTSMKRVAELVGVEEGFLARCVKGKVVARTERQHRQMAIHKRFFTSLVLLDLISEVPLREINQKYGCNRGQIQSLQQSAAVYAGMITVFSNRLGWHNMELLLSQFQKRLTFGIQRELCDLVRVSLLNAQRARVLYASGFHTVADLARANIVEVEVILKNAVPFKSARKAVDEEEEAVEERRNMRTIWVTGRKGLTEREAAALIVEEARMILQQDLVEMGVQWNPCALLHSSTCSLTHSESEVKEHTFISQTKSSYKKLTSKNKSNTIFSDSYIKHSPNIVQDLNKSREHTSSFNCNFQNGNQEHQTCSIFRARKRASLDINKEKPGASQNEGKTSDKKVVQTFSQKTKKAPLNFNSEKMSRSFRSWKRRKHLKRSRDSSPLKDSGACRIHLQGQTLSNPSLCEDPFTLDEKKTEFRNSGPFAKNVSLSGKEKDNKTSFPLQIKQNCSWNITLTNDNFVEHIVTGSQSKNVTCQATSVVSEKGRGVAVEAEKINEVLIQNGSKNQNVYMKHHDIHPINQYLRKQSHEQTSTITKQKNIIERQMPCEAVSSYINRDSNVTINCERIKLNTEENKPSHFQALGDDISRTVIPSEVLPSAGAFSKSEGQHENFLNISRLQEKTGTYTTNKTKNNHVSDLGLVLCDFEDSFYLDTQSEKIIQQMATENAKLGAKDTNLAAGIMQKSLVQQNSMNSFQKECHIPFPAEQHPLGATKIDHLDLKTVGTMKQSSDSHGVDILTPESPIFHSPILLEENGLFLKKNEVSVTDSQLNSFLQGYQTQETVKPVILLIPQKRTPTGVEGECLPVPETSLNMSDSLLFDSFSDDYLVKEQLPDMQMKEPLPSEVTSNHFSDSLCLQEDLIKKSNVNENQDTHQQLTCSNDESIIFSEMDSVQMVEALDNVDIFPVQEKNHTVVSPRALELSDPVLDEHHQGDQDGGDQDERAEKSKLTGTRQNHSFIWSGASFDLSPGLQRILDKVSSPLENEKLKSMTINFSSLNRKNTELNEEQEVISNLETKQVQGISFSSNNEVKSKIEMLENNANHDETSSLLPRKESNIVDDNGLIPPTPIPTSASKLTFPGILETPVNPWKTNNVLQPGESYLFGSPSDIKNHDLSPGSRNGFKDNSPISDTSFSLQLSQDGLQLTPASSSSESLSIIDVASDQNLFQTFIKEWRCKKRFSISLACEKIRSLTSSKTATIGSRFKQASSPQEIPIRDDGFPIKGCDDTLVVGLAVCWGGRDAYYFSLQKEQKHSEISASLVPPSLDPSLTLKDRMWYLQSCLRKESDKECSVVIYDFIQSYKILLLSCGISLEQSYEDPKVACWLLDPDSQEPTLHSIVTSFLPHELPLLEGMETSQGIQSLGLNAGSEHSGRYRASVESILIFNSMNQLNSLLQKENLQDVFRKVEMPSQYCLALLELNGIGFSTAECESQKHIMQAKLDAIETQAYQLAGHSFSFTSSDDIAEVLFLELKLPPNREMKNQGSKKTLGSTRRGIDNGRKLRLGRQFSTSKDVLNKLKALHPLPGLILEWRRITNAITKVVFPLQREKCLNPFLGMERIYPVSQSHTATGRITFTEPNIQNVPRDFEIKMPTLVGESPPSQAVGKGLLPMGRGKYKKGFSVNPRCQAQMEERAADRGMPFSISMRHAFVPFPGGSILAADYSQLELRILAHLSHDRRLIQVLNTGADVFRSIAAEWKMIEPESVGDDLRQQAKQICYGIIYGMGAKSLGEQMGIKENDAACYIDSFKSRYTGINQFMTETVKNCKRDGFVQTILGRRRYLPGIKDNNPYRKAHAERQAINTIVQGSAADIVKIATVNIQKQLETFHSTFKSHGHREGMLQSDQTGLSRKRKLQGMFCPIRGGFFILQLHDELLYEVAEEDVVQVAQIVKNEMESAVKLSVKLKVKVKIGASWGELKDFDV

| Compound | IC50 [nM] |
| --- | --- |
| CCN(C(=O)[C@H]1C[C@@H](N(C)C2CCNC2)CN1c1nc(C)cc(C)c1C#N)c1cccc(C)c1 (stereo in doubt) [Example 48, (2R,4R)-1-(3-Cyano-4,6-dimethylpyridin-2-yl)-N-ethyl-4-(methyl(pyrrolidin-3-yl)amino)-N-(m-tolyl)pyrrolidine-2-carboxamide] | 573 |
| COc1cc(N(C)C(=O)[C@@H]2C[C@H](O)CN2c2nc(C)cc(C(F)(F)F)c2C#N)ccc1F [Example 16, (2S,4S)-1-(3-Cyano-6-methyl-4-(trifluoromethyl)pyridin-2-yl)-N-(4-fluoro-3-methoxyphenyl)-4-hydroxy-N-methylpyrrolidine-2-carboxamide] | 274 |
| Cc1cc(C(F)(F)F)cc(N2C(=O)OC[C@H]2C(=O)N(C)c2ccc(F)c(O)c2)n1 [Example 106, (S)—N-(4-Fluoro-3-hydroxyphenyl)-N-methyl-3-(6-methyl-4-(trifluoromethyl)pyridin-2-yl)-2-oxooxazolidine-4-carboxamide] | 324 |
| Cc1cc(C(F)(F)F)c(C#N)c(N2C[C@@H](O)C[C@H]2C(=O)N(C)c2cc(F)cc(F)c2)n1 [Example 17, (2S,4S)-1-(3-Cyano-6-methyl-4-(trifluoromethyl)pyridin-2-yl)-N-(3,5-difluorophenyl)-4-hydroxy-N-methylpyrrolidine-2-carboxamide] | 97 |
| Cc1cccc(N(C)C(=O)[C@@H]2[C@@H](O)[C@@H](O)CN2c2nc(C)cc(C(F)(F)F)c2C#N)c1 [Example 53, (2S,3R,4S)-1-(3-Cyano-6-methyl-4-(trifluoromethyl)pyridin-2-yl)-3,4-dihydroxy-N-methyl-N-(m-tolyl)pyrrolidine-2-carboxamide] | 121 |
| Cc1cc(C(F)(F)F)cc(N2C(=O)[C@@H](O)[C@@H](O)[C@H]2C(=O)N(C)c2ccc(F)c(C)n2)n1 [Example 170, (2S,3S,4S)—N-(5-Fluoro-6-methylpyridin-2-yl)-3,4-dihydroxy-N-methyl-1-(6-methyl-4-(trifluoromethyl)pyridin-2-yl)-5-oxopyrrolidine-2-carboxamide] | 193 |
| Cc1cc(C)c(C#N)c(N2C[C@@H](O)C[C@H]2C(=O)N(C)c2cccc(CF)c2)n1 [Example 11, (2S,4S)-1-(3-Cyano-4,6-dimethylpyridin-2-yl)-N-(3-(fluoromethyl)phenyl)-4-hydroxy-N-methylpyrrolidine-2-carboxamide] | 452 |

The next lines start with the values.

| IC50 [nM] | Compound |
| --- | --- |
| 14 | Cc1cc(C(F)(F)F)cc(N2C(=O)NC[C@H]2C(=O)N(C)c2ccc3occ(C)c3n2)n1 [Example 236, (S)—N-Methyl-3-(6-methyl-4-(trifluoromethyl)pyridin-2-yl)-N-(3-methylfuro[3,2-b]pyridin-5-yl)-2-oxoimidazolidine-4-carboxamide] |
| 45 | CCN(C(=O)[C@@H]1C[C@H](N[C@H]2CN(C(=O)OC(C)(C)C)C[C@H]2O)CN1c1cc(C(F)(F)F)cc(C)n1)c1ccc(F)c(F)c1 [Example 136, tert-Butyl (3S,4R)-3-(((3S,5S)-5-((3,4-difluorophenyl)(ethyl)carbamoyl)-1-(6-methyl-4-(trifluoromethyl)pyridin-2-yl)pyrrolidin-3-yl)amino)-4-hydroxypyrrolidine-1-carboxylate] |
| 18 | Cc1cc(C(F)(F)F)cc(N2C(=O)N(CC3CNC3)C[C@H]2C(=O)N(C)c2ccc(F)c(Cl)c2F)n1 [Example 188, (S)-1-(Azetidin-3-ylmethyl)-N-(3-chloro-2,4-difluorophenyl)-N-methyl-3-(6-methyl-4-(trifluoromethyl)pyridin-2-yl)-2-oxoimidazolidine-4-carboxamide] |
| 6 | Cc1cc(C(F)(F)F)cc(N2C(=O)NC[C@H]2C(=O)N(C)c2ccc3c(F)c[nH]c3n2)n1 [Example 239, (S)—N-(3-Fluoro-1H-pyrrolo[2,3-b]pyridin-6-yl)-N-methyl-3-(6-methyl-4-(trifluoromethyl)pyridin-2-yl)-2-oxoimidazolidine-4-carboxamide] |
| 8 | Cc1cc(C(F)(F)F)cc(N2C(=O)N(CCN3CCN(CCO)CC3)C[C@H]2C(=O)N(C)c2ccc(F)c(Cl)c2F)n1 [Example 209, (S)-N-(3-Chloro-2,4-difluorophenyl)-1-(2-(4-(2-hydroxyethyl)piperazin-1-yl)ethyl)-N-methyl-3-(6-methyl-4-(trifluoromethyl)pyridin-2-yl)-2-oxoimidazolidine-4-carboxamide] |
| 74 | Cc1cc(C(F)(F)F)c(C#N)c(N2CCC[C@H]2C(=O)N(C)c2ccc3c(n2)N(C)CCO3)n1 [Example 245, (S)-1-(3-Cyano-6-methyl-4-(trifluoromethyl)pyridin-2-yl)-N-methyl-N-(4-methyl-3,4-dihydro-2H-pyrido[3,2-b][1,4]oxazin-6-yl)pyrrolidine-2-carboxamide] |
| 26 | CCN(C(=O)[C@@H]1C[C@H](N2CCOC[C@@H]2CO)CN1c1nc(C)cc(C(F)(F)F)c1C#N)c1ccc(F)c(Cl)c1 [Example 152, (2S,4S)-N-(3-Chloro-4-fluorophenyl)-1-(3-cyano-6-methyl-4-(trifluoromethyl)pyridin-2-yl)-N-ethyl-4-((S)-3-(hydroxymethyl)morpholino)pyrrolidine-2-carboxamide] |
| 26 | Cc1cc(C(F)(F)F)cc(N2C(=O)N(CCS(C)(=N)=O)C[C@H]2C(=O)N(C)c2ccc(F)c(Cl)c2)n1 (stereo partly drawn) [Example 213, (4S)—N-(3-Chloro-4-fluorophenyl)-N-methyl-3-(6-methyl-4-(trifluoromethyl)pyridin-2-yl)-1-(2-(S-methylsulfonimidoyl)ethyl)-2-oxoimidazolidine-4-carboxamide] |
| 11 | CCN(C(=O)[C@@H]1C[C@H](N2CCOC(CO)C2)CN1c1nc(C)cc(C(F)(F)F)c1C#N)c1ccc(F)c(C)c1 (stereo partly drawn) [Example 150, (2S,4S)-1-(3-Cyano-6-methyl-4-(trifluoromethyl)pyridin-2-yl)-N-ethyl-N-(4-fluoro-3-methylphenyl)-4-(2-(hydroxymethyl)morpholino)pyrrolidine-2-carboxamide] |
| 19 | Cc1cc(C(F)(F)F)cc(N2C(=O)N(CC(O)CO)C[C@H]2C(=O)N(C)c2ccc(F)c(Cl)c2F)n1 (stereo partly drawn) [Example 226, (4S)—N-(3-Chloro-2,4-difluorophenyl)-1-(2,3-dihydroxypropyl)-N-methyl-3-(6-methyl-4-(trifluoromethyl)pyridin-2-yl)-2-oxoimidazolidine-4-carboxamide] |
| 32 | CCN(C(=O)[C@@H]1CNC(=O)N1c1cc(C(F)(F)F)cc(C)n1)c1ccc(F)c(Cl)c1 [Example 157, (S)—N-(3-Chloro-4-fluorophenyl)-N-ethyl-3-(6-methyl-4-(trifluoromethyl)pyridin-2-yl)-2-oxoimidazolidine-4-carboxamide] |
| 45 | Cc1cc(C(F)(F)F)cc(N2C(=O)N(CCS(=O)(=O)N(C)C)C[C@H]2C(=O)N(C)c2ccc(F)c(Cl)c2)n1 [Example 181, (S)—N-(3-Chloro-4-fluorophenyl)-1-(2-(N,N-dimethylsulfamoyl)ethyl)-N-methyl-3-(6-methyl-4-(trifluoromethyl)pyridin-2-yl)-2-oxoimidazolidine-4-carboxamide] |

Same assay, conditions: read-out: Polθ IC50; full length N-His, C-term FLAG tagged Polθ, PicoGreen fluorescence, 12 point concentration response

| IC50 [nM] | Compound |
| --- | --- |
| 7 | Cc1cccc(N(C)C(=O)[C@@H]2COC(=O)N2c2cc(C(F)(F)F)cc(C)n2)c1 [Example 58, (S)—N-Methyl-3-(6-methyl-4-(trifluoromethyl)pyridin-2-yl)-2-oxo-N-(m-tolyl)oxazolidine-4-carboxamide] |
